Measured values from PMC6635429, “A 4-cyano-3-methylisoquinoline inhibitor of Plasmodium falciparum growth targets the sodium efflux pump PfATP4” (Scientific Reports, 2019).

How the values were obtained:
Type in all cases: biochemical
[1] = biological target: T1, PfATP4 (Plasmodium falciparum, UniProt A0A143ZZK9); assay: cipargamin-sensitive Na+-dependent ATPase activity (Pi release) in parasite membranes
T1 construct: gene ATP4; native PfATP4 in P. falciparum membrane preparations (3D7)

[2] = biological target: T1, PfATP4; assay: cipargamin-sensitive Na+-dependent ATPase activity (Pi release) in parasite membranes; resistance mutation S374R
[3] = biological target: T2, PfATP4 (Plasmodium falciparum, UniProt A0A143ZZK9, S374R); assay: cipargamin-sensitive Na+-dependent ATPase activity (Pi release) in membranes of resistant parasites
T2 construct: gene ATP4; PfATP4 S374R in membranes from B7 parasites
T2 sequence (A0A143ZZK9 1-1264 S374R): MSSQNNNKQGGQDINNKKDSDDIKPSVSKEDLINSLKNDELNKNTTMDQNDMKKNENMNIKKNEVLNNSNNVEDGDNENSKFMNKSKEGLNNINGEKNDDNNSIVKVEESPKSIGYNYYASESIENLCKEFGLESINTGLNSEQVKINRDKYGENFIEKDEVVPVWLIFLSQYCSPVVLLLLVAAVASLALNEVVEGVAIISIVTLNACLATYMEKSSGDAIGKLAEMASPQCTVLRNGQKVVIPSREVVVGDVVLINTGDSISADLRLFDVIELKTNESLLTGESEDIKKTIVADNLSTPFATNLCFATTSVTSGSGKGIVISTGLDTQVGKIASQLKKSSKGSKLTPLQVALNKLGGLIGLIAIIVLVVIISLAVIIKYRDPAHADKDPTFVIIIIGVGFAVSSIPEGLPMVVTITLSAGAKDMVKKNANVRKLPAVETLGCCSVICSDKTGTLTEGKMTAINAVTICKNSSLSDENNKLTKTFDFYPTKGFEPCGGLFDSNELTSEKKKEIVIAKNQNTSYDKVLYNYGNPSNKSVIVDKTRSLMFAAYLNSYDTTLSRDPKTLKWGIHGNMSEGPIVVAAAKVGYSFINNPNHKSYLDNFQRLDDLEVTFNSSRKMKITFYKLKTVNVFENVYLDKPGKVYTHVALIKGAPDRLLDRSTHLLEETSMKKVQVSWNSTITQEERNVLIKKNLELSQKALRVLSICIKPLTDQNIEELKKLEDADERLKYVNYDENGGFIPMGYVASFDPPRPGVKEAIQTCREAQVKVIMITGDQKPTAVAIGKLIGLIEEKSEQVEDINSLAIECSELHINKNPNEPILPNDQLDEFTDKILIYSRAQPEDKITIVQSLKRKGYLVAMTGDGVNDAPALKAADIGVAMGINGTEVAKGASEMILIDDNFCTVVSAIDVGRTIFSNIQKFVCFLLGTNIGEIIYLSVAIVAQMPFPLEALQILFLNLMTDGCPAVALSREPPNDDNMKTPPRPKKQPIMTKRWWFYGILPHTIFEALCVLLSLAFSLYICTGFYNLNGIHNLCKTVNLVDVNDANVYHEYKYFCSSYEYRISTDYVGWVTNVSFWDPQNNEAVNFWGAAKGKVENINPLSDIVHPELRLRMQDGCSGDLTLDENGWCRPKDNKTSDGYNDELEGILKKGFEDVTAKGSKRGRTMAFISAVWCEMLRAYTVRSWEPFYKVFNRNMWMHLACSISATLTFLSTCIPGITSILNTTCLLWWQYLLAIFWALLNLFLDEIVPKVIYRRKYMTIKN

SMILES | IC50 [1] [nM] | IC50 [2] [nM] | IC50 [3] [nM]
Cc1nc(N[C@@H](C)c2ccccc2)c2ccccc2c1C#N [MB10] | 62 ± 9 |  | 
CCC(CC)Nc1nc(C)c(C#N)c2ccccc12 [MB14, 3-methyl-1-(1-ethylpropylamino)isoquinoline-4-carbonitrile] |  | 52 ± 16 | 429 ± 73
